Results: patent US12582689B2, “Use of terpenoids in the treatment or prevention of fibrotic diseases” (ARJIL BIOTECH HOLDING COMPANY LIMITED, priority 2020, dated 2026)

Experiments:
Type in all cases: in vivo
[1] = system: TNF-α, IL-1β, IL-6 and TGF-β; assay: Bleomycin-induced pulmonary fibrosis in mice: pro-inflammatory cytokines by ELISA; details: extract 1.0 g/kg, BH and DH (50 mg/kg), p<0.001, FIG. 35
Experimental: Mice were divided into fifth groups with 5 animals per group according to body weight: control group, BLM group, BLM+DEX group (7.5 mg/kg), BLM+ACH dosage group (50 mg/kg), and BLM+ACM dosage group ([…]), BLM+ACH dosage group (50 mg/kg), and BLM+ACM dosage group (25 mg/kg) BLM+AH dosage group (50 mg/kg), and BLM+AM dosage group (25 mg/kg) BLM+BH dosage group (50 mg/kg), and BLM+BM dosage group (25 mg/kg) BLM+CH dosage group (50 mg/kg), and BLM+CM dosage group (25 mg/kg) BLM+DH dosage group (50 mg/kg), and BLM+DM dosage group (25 mg/kg) BLM+EH dosage group (50 mg/kg), and BLM+EM dosage group (25 mg/kg) BLM. Pulmonary fibrosis (PF) was established in mice via a single intratracheal administration of BLM at 7.5 mg/kg mg/kg body weight. Different doses of samples were intragastrically administered daily for 21 days after BLM injury, and DEX was used as the positive control. Control and model groups received an equal volume of vehicle (0.9% NaCl) using the same schedule and route of administration. […]
The serum concentration of the pro-inflammatory cytokines (i.e. tumor necrosis factor-α (TNF-α), interleukin-6 (IL-6), and IL-1β) in serum were assessed with relevant enzyme-linked immunosorbent assay (ELISA) kits (Biosource International Inc., Sunnyvale, CA, USA), based on the manufacturer's instructions. […]

[2] = system: cisplatin-induced renal injury in C57BL/6 mice; assay: Mice model of cisplatin-induced renal injury: serum CRE/BUN and kidney histopathology; details: for renal protection: normalization of serum CRE and BUN: cisplatin-treated mice, extracts at 1000 mg/kg, compound doses not given, p<0.001 vs cisplatin group
Experimental: Determination of biochemical parameters Serum creatinine and serum urea are assessed using colorimetric kits according to manufacturer's instructions. Kits of the former markers are purchased from (HUMAN Diagnostics Worldwide, Magdeburg, Germany) with a chemical analyzer (Roche Diagnostics, Cobas Mira Plus, Rotkreuz, Switzerland).
Kidney histopathology The anterior portion of the […] from each mouse is fixed in 10% formaldehyde phosphate butler, embedded in paraffin, cut into 5 μm sections, and then treated with an hematoxylin and eosin (H&E) stain for histological examination under the light microscopy (Nikon, ECLIPSE, TS100, Tokyo, Japan). Images are captured with a digital camera (NIS-Elements D 2.30, SP4, Build 387) at an original magnification of 400×.
(§1) Seven-to-eight-week-old male C57BL/6 mice are obtained from the BioLASCO Taiwan Co., Ltd, (Taipei, Taiwan). The animals are housed in Plexiglas cages at a constant temperature of 22±1° C. and a relative humidity of 55±5% on a 12 h dark-light cycle for at least 2 weeks before the experiment. Animals are provided food and water ad libitum. All experimental procedures are performed according to the guidelines of the institutional Animal Ethics Committee, and the protocol is approved by the Committee for the Purpose of Control and Supervision of Experiments on Animals.
(§2) Renal fibrosis is induced via multiple injections of low-dose cisplatin. Intraperitoneal injections of cisplatin (5 mg/kg/injection; P4394, Sigma-Aldrich, St Louis, MO) are performed at 0, 1, and 3 weeks, for a total of 3 injections. Mice are sacrificed at 6 weeks after the first dose of cisplatin (n=6). To analyze the effects of samples, mice are given daily intraperitoneal injections for 7 days, starting from 4 weeks after first dose of cisplatin, and sacrificed at 4 weeks (n=6).

lung MPO activity = assay: Bleomycin-induced pulmonary fibrosis in mice: lung myeloperoxidase (MPO) assay; details: BLM mice; compared with BLM group, p<0.001; FIG. 36
Experimental: Mice were divided into fifth groups with 5 animals per group according to body weight: control group, BLM group, BLM+DEX group (7.5 mg/kg), BLM+ACH dosage group (50 mg/kg), and BLM+ACM dosage group (2.5 mg/kg), BLM+ACH dosage group (50 mg/kg), and BLM+ACM dosage group (25 mg/kg) BLM+AH dosage group (50 mg/kg), and BLM+AM dosage group (25 mg/kg) BLM+BH dosage group (50 mg/kg), and BLM+BM dosage group (25 mg/kg) BLM+CH dosage group (50 mg/kg), and BLM+CM dosage group (25 mg/kg) BLM+DH dosage group (50 mg/kg), and BLM+DM dosage group (25 mg/kg) BLM+EH dosage group (50 mg/kg), and BLM+EM dosage group (25 mg/kg) BLM. Pulmonary fibrosis (PF) was established in mice via a single intratracheal administration of BLM at 7.5 mg/kg mg/kg body weight. Different doses of samples were intragastrically administered daily for 21 days after BLM injury, and DEX was used as the positive control. Control and model groups received an equal volume of vehicle (0.9% NaCl) using the same schedule and route of administration.
The pulmonary MPO activity was a reliable index for estimating the infiltration of inflammatory cells in lungs. The lung tissues were homogenized and the MPO levels were detected with the kits according to manufacturer's instruction.

[3] = system: CCl4-induced chronic liver fibrosis in SD rats; assay: CCl4-induced chronic liver fibrosis in rat
Experimental: Blood samples are collected at week 0, 2, 4, 6, and 8. The animals are sacrificed at the end of the 8-week for histopathological examinations. FIGS. 7A, 7B, 7C depict delta weight, liver weight, and liver/body-weight ratio, respectively.
The level of clinical biochemistry such as aspartate aminotransferase (AST), alanine aminotransferase (ALT), is evaluated to determine the enzymatic activities of the livers of the control groups and the experimental groups (shown in FIGS. 8A-8C).

[4] = system: TNF-α, IL-1β, IL-6 and TGF-β levels in serum; assay: Cisplatin-induced renal injury mice: serum pro-inflammatory cytokines by ELISA; details: cisplatin-treated mice, extract at 1000 mg/kg, FIG. 4
Experimental: TNF-α, IL-6, and IL-1β cytokines in serum The serum concentration of the pro-inflammatory cytokines (i.e. tumor necrosis factor-α (TNF-α), interleukin-6 ([…]), and IL-1β) in serum are assessed with relevant enzyme-linked immunosorbent assay ([…]) kits (Biosource International Inc., Sunnyvale, CA, USA), based on the manufacturer's instructions.
as §1
as §2, with “weeks (n=6). […]” for “weeks (n=6).”

[5] = system: bleomycin-induced pulmonary fibrosis in mice; assay: Bleomycin-induced pulmonary fibrosis in mice: body and lung weight, lung index, histopathology, hydroxyproline; details: BLM mice; for hydroxyproline (HP) content in lung tissue: extract 1.0 g/kg, compound high-dose groups (50 mg/kg), p<0.001, FIG. 34; for Pulmonary index [(lung weight/body weight)×100]: BLM group 1.60 ± 0.02
Experimental: Specific pathogen-free ICR mice (males) (body weights 18-22 g) were purchased from the BioLASCO Taiwan Co., Ltd. (Taipei, Taiwan). The animals were housed in Plexiglas cages at a constant temperature of 22±1° C. and a relative humidity of 55±5% on a 12 h dark-light cycle for at least 2 weeks before the experiment. Animals were provided food and water ad libitum. All experimental procedures were performed according to the guidelines of the Institutional Animal Ethics Committee, and the protocol was approved by the Committee for the Purpose of Control and Supervision of Experiments on Animals.
Pulmonary fibrosis (PF) was established in mice via a single intratracheal administration of BLM at 7.5 mg/kg mg/kg body weight. Different doses of samples were intragastrically administered daily for 21 days after BLM injury, and DEX was used as the positive control. Control and model groups received an equal volume of vehicle (0.9% NaCl) using the same schedule and route of administration.
Mouse body weights were recorded daily. Mice were sacrificed on the 21th day using excess chloral hydrate hydrochloride anesthesia. Blood was obtained for ELISA analyses, and whole lungs were removed and weighed. […] The pulmonary coefficient was calculated using the following equation: lung weight/body weight×100%

Compound	TNF-α, IL-1β, IL-6 and TGF-β production after BLM challenge [1]	renal protection: normalization of serum CRE and BUN [2]	lung MPO activity (lung MPO activity)	hydroxyproline (HP) content in lung tissue [5]	other results
C=C1C(=O)O[C@H]2/C=C(\C)CC3C=C(CC/C=C(\C)CC[C@H]12)C(=O)O3 (stereo partly shown) [AR100-DS1, Ovatodiolide]	improved TNF-α, IL-1β, IL-6 and TGF-β production	significant renal protection effect	evidently suppressed the MPO activities	reduced lung HP	kidney histopathology (H&E): necrosis and inflammatory infiltrating cells ([2]; cisplatin-stimulated mice, extract at 1000 mg/kg, FIG. 3): significantly improved necrosis and inflammatory infiltrating cells; liver weight ([3]; 50 mg/kg, SD rats, 8 weeks CCl4, compared to Vehicle and Naïve group): significantly larger; liver appearance ([3]; 50 mg/kg, after 8 weeks of CCl4 induction): smooth surface without atrophy and sclerosis; serum AST and ALT level ([3]; 50 mg/kg, at W6 and W8, compared with the vehicle group): less AST and ALT increases; CCl4-induced liver injury, overall ([3]; SD rats, 8 weeks CCl4): potential to partially repair CCl4-induced liver injury; serum NO, TNF-α, IL-1β and IL-6 production after cisplatin challenge [4]: improved NO, TNF-α, IL-1β, and IL-6 production
C=C(CC[C@@H](C)[C@H]1CC[C@H]2C3=C(C(=O)C[C@]12C)[C@@]1(C)CC[C@@H](O)[C@](C)(O)[C@@H]1C[C@@H]3O)[C@@H](C)C(=O)O (racemic) [AR101-DS1, RS-Antcin K]			evidently suppressed the MPO activities		
C=C(CC[C@@H](C)[C@H]1CC[C@H]2C3=C(C(=O)C[C@]12C)[C@@]1(C)CC[C@@H](O)[C@](C)(O)[C@@H]1C[C@@H]3O)[C@@H](C)C(=O)O (stereo in doubt) [AR101-DS1, RS-Antcin K]				reduced lung HP	
Dehydrosulphurenic acid/Sulphurenic acid [AR101-DS2]	improved TNF-α, IL-1β, IL-6 and TGF-β production		evidently suppressed the MPO activities	reduced lung HP	Pulmonary index [(lung weight/body weight)×100] ([5]; 25 mg/kg daily for 21 days): 1.26 ± 0.03; Pulmonary index [(lung weight/body weight)×100] ([5]; 50 mg/kg daily for 21 days, 50 mg/kg): 1.01 ± 0.02; Pulmonary index [(lung weight/body weight)×100] ([5]; 50 mg/kg daily for 21 days, listed as BH, 50 mg/kg): significant decrease
C=C(CC[C@@H](C(=O)O)[C@H]1CC[C@@]2(C)C3=CC[C@H]4C(C)(C)[C@@H](O)CC[C@]4(C)C3=CC[C@]12C)C(C)C [AR101-DS4, Dehydroeburicoic Acid]		significant renal protection effect			
